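All cell lines were grown in 96-well plates and treated with compound for 48 hours. GI50 is the concentration that inhibits growth by half.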 The source made the active and inactive calls. No stated cut-off is given here; in the data, active = GI50 up to about 1.1 µM and inactive = higher.
Columns and labels:
Assay in all cases: DTP human tumour cell line panel, 48 h
SW-620 = test system: SW-620
BT-549 = test system: BT-549
CCRF-CEM = test system: CCRF-CEM
K562 = test system: K562
NCI-H226 = test system: NCI-H226
SR = test system: SR
HT-29 = test system: HT-29
COLO 205 = test system: COLO 205
IGROV-1 = test system: IGROV-1
MCF7 = test system: MCF7
HCT-116 = test system: HCT-116
Malme-3M = test system: Malme-3M
SF-268 = test system: SF-268
CAKI-1 = test system: CAKI-1
A498 = test system: A498
SK-MEL-2 = test system: SK-MEL-2
PC-3 = test system: PC-3
MDA-N = test system: MDA-N
SK-MEL-28 = test system: SK-MEL-28

SMILES: O=C(O)c1nc2cc(C(F)(F)F)ccc2nc1Nc1ccc(Cl)c(Cl)c1
- GI50 (SW-620): 10.8 µM (inactive)
- GI50 (BT-549): 11.1 µM (inactive)
- GI50 (CCRF-CEM): > 10 µM (inactive)
- GI50 (K562): 14.6 µM (inactive)
- GI50 (NCI-H226): 15.8 µM (inactive)
- GI50 (SR): 21.6 µM (inactive)
- GI50 (HT-29): 15.3 µM (inactive)
- GI50 (COLO 205): 16.6 µM (inactive)
- GI50 (IGROV-1): 18 µM (inactive)
- GI50 (MCF7): 23.8 µM (inactive)
- GI50 (HCT-116): 9.23 µM (inactive)
- GI50 (Malme-3M): 20.1 µM (inactive)
- GI50 (SF-268): 16.8 µM (inactive)
- GI50 (CAKI-1): 28.4 µM (inactive)
- GI50 (A498): 15.8 µM (inactive)
- GI50 (SK-MEL-2): 2.96 µM (inactive)
- GI50 (PC-3): 4.3 µM (inactive)
- GI50 (MDA-N): 14 µM (inactive)

SMILES: CN1C(C(=O)Nc2ccccn2)=C(O)c2ccccc2S1(=O)=O [PIROXICAM]
- GI50 (SW-620): > 100 µM (inactive)
- GI50 (BT-549): 15.3 µM (inactive)
- GI50 (CCRF-CEM): > 100 µM (inactive)
- GI50 (NCI-H226): > 100 µM (inactive)
- GI50 (SR): > 100 µM (inactive)
- GI50 (HT-29): > 100 µM (inactive)
- GI50 (COLO 205): > 100 µM (inactive)
- GI50 (MCF7): > 100 µM (inactive)
- GI50 (HCT-116): > 100 µM (inactive)
- GI50 (Malme-3M): > 100 µM (inactive)
- GI50 (SF-268): > 100 µM (inactive)
- GI50 (CAKI-1): > 100 µM (inactive)
- GI50 (SK-MEL-2): > 100 µM (inactive)
- GI50 (PC-3): > 100 µM (inactive)
- GI50 (SK-MEL-28): > 100 µM (inactive)
- GI50 (MDA-N): > 100 µM (inactive)

SMILES: C#CCn1c(=O)c(Cl)cn(/C(=C/C(=O)OCC)C(=O)OCC)c1=O
- GI50 (SW-620): 2.22 µM (inactive)
- GI50 (BT-549): 18.5 µM (inactive)
- GI50 (CCRF-CEM): 5.2 µM (inactive)
- GI50 (K562): 1.7 µM (inactive)
- GI50 (NCI-H226): > 43.1 µM (inactive)
- GI50 (SR): 2.32 µM (inactive)
- GI50 (HT-29): 18.4 µM (inactive)
- GI50 (COLO 205): 1.04 µM (active)
- GI50 (IGROV-1): 17.3 µM (inactive)
- GI50 (MCF7): 8.45 µM (inactive)
- GI50 (HCT-116): 4.69 µM (inactive)
- GI50 (Malme-3M): 3.86 µM (inactive)
- GI50 (SF-268): 27.9 µM (inactive)
- GI50 (CAKI-1): 2.99 µM (inactive)
- GI50 (A498): 22.9 µM (inactive)
- GI50 (SK-MEL-2): 17.4 µM (inactive)
- GI50 (PC-3): 16.6 µM (inactive)
- GI50 (SK-MEL-28): 19 µM (inactive)
- GI50 (MDA-N): 15.3 µM (inactive)

SMILES: Nc1cc(CO)cc(Nc2c3ccccc3nc3ccccc23)c1
- GI50 (SW-620): 12.8 µM (inactive)
- GI50 (BT-549): 14.5 µM (inactive)
- GI50 (CCRF-CEM): 6.78 µM (inactive)
- GI50 (K562): 14.2 µM (inactive)
- GI50 (NCI-H226): 18.2 µM (inactive)
- GI50 (SR): 53 µM (inactive)
- GI50 (HT-29): 14.7 µM (inactive)
- GI50 (COLO 205): 11.6 µM (inactive)
- GI50 (IGROV-1): 16.9 µM (inactive)
- GI50 (MCF7): 15.5 µM (inactive)
- GI50 (HCT-116): 15.1 µM (inactive)
- GI50 (Malme-3M): 16.5 µM (inactive)
- GI50 (SF-268): 17.9 µM (inactive)
- GI50 (CAKI-1): 17.5 µM (inactive)
- GI50 (A498): 24.6 µM (inactive)
- GI50 (SK-MEL-2): 14.1 µM (inactive)
- GI50 (PC-3): 15.5 µM (inactive)
- GI50 (SK-MEL-28): 17.8 µM (inactive)
- GI50 (MDA-N): 20.6 µM (inactive)

SMILES: O=C(O)C1(Nc2ccc(Cl)cc2)CCCC1
- GI50 (SW-620): > 100 µM (inactive)
- GI50 (BT-549): > 100 µM (inactive)
- GI50 (CCRF-CEM): > 100 µM (inactive)
- GI50 (K562): > 100 µM (inactive)
- GI50 (NCI-H226): > 100 µM (inactive)
- GI50 (SR): > 100 µM (inactive)
- GI50 (HT-29): > 100 µM (inactive)
- GI50 (COLO 205): 33 µM (inactive)
- GI50 (IGROV-1): > 100 µM (inactive)
- GI50 (MCF7): > 100 µM (inactive)
- GI50 (HCT-116): 76.4 µM (inactive)
- GI50 (Malme-3M): > 100 µM (inactive)
- GI50 (SF-268): > 100 µM (inactive)
- GI50 (CAKI-1): > 100 µM (inactive)
- GI50 (A498): > 100 µM (inactive)
- GI50 (SK-MEL-2): > 100 µM (inactive)
- GI50 (PC-3): > 100 µM (inactive)
- GI50 (SK-MEL-28): > 100 µM (inactive)
- GI50 (MDA-N): > 100 µM (inactive)

SMILES: CCOC(=O)CNC(=O)C(CSCC1C(=O)Nc2ccccc21)NC(=O)CCC(N)C(=O)OCC (stereo not given)
- GI50 (SW-620): 1.19 µM (inactive)
- GI50 (BT-549): 2.44 µM (inactive)
- GI50 (CCRF-CEM): 0.269 µM (active)
- GI50 (K562): 0.242 µM (active)
- GI50 (NCI-H226): 1.93 µM (inactive)
- GI50 (SR): 0.24 µM (active)
- GI50 (HT-29): 1.55 µM (inactive)
- GI50 (COLO 205): 1.24 µM (inactive)
- GI50 (IGROV-1): 1.15 µM (inactive)
- GI50 (MCF7): 1.07 µM (active)
- GI50 (HCT-116): 0.551 µM (active)
- GI50 (Malme-3M): 1.88 µM (inactive)
- GI50 (SF-268): 1.86 µM (inactive)
- GI50 (CAKI-1): 0.745 µM (active)
- GI50 (A498): 3.12 µM (inactive)
- GI50 (SK-MEL-2): 1.87 µM (inactive)
- GI50 (PC-3): 1.88 µM (inactive)
- GI50 (SK-MEL-28): 1.68 µM (inactive)
- GI50 (MDA-N): 1.79 µM (inactive)

Reference: ChEMBL document CHEMBL1201862, “PubChem BioAssay data set” (2004)
